Where two headings read alike, the source gives them in different places. Starred links: 1 amine or outer side, 2 acyl side, 3 side chain; linkers in the order of their positions; H or OH if unused. Positions of bridges follow the written chain, without caps; N, C: chain ends. Non-standard residues stand in square brackets, D forms with d. Residues, ends and D or L forms follow the SMILES beside them. *: point of attachment. Phe(3-(CH2)4CO) = O=C([C@H](Cc1cccc(CCCCC(=O)[*:3])c1)N[*:1])[*:2]; NMeF = CN[C@@H](Cc1ccccc1)C(=O)O; NMeGABA = CN(CCCC(=O)[*:2])[*:1]; NMeI = CC[C@H](C)[C@H](NC)C(=O)O; NMeβAla = CN(CCC(=O)[*:2])[*:1]; NMeL = CN[C@@H](CC(C)C)C(=O)O; NMeV = CN[C@H](C(=O)O)C(C)C; NMeA = CN[C@@H](C)C(=O)O; Piperidide = C1CCN(*)CC1; dNMeA = CN[C@H](C)C(=O)O; β3hA = C[C@H](N)CC(=O)O; Sar = CNCC(=O)O; tBu = CC(C)(C)*
How the values were obtained:
[1] = PAMPA (parallel artificial membrane permeability assay); format: in vitro ADME; conditions: PAMPA
Outline: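 Artificial membrane was 10% (w/v) egg lecithin plus 0.5% (w/v) cholesterol in dodecane on a PVDF filter. A 10 mM DMSO stock was added at 0.5% (v/v) to donor buffer (50 mM MOPSO, pH 6.5, 5.0% glycocholic acid). After 18 h at 37 °C, LC/MS or LC/UV gave donor and acceptor levels for Pe.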

[2] = Metabolic stability in human hepatic microsome; format: in vitro ADME; conditions: microsomes
[3] = membrane permeation rate (Pe), 50 mM MOPSO buffer pH 6.5 with 5.0% glycocholic acid, 37° C., 18 hours, read-out: iPAMPA Pe
[4] = pH 7.4, human hepatic microsome, NADPH(+), read-out: CL NADPH(+)

CC(C)C[C@@H]1NC(=O)[C@H](Cc2ccccc2)N(C)C(=O)[C@H]([C@@H](C)O)NC(=O)[C@H](Cc2ccccc2)N(C)C(=O)[C@H](C)N(C)C(=O)[C@H](C)NC(=O)C[C@@H](C(=O)N2CCCCC2)NC(=O)[C@@H]2CCCN2C1=O [DP-530] (A[NMeA][NMeF]T[NMeF]LPD-Piperidide; lactam N-8)
Papp at 18 hours, 50 µM ([1]; pH 6.5): 11 ×10⁻⁶ cm/s
microsomal CLint at 1 uM ([2]; human, pH 7.4, CL NADPH(+)): 37 µL/min/mg

CC[C@H](C)[C@@H]1NC(=O)[C@H](Cc2ccccc2)NC(=O)[C@@H]2CCCN2C(=O)[C@H](CC(C)C)N(C)C(=O)[C@H](Cc2ccccc2)NC(=O)[C@H](CC(C)C)NC(=O)[C@H]([C@@H](C)O)NC(=O)CCCCc2cccc(c2)C[C@@H](C(=O)N2CCCCC2)NC(=O)[C@H](CC(C)C)NC(=O)CN(C)C1=O [DP-901] (TLF[NMeL]PFI[Sar]L[Phe(3-(CH2)4CO)]-Piperidide; lactam N-10)
Papp at 18 hours, 50 µM [1, 3]: 23 ×10⁻⁶ cm/s
microsomal CLint at 1 uM [2, 4]: 131 µL/min/mg

CC[C@H](C)[C@@H]1NC(=O)[C@@H]2CCCN2C(=O)[C@H]([C@@H](C)O)NC(=O)[C@H](Cc2ccccc2)NC(=O)CNC(=O)[C@H](Cc2ccccc2)N(C)C(=O)[C@H](CC(C)C)NC(=O)[C@H](CC(C)C)N(C)C(=O)[C@H](CC(C)C)N(C)C(=O)CCCN(C)C(=O)C[C@@H](C(=O)N2CCCCC2)NC1=O [DP-113] ([NMeGABA][NMeL][NMeL]L[NMeF]GFTPID-Piperidide; lactam N-11)
Papp at 18 hours, 50 µM ([1]; pH 6.5): 28 ×10⁻⁶ cm/s
microsomal CLint at 1 uM ([2]; human, pH 7.4, CL NADPH(+)): 84 µL/min/mg

CC(C)C[C@H]1C(=O)N[C@H](C(=O)N2CCCCC2)CC(=O)N(C)[C@@H](C)C(=O)N(C)[C@@H](Cc2ccccc2)C(=O)N(C)[C@@H](CC(C)C)C(=O)N[C@@H]([C@@H](C)O)C(=O)N(C)[C@@H](C)C(=O)N1C [DP-678] ([NMeA][NMeF][NMeL]T[NMeA][NMeL]D-Piperidide; lactam N-7)
Papp at 18 hours, 50 µM [1, 3]: 26 ×10⁻⁶ cm/s
microsomal CLint at 1 uM [2, 4]: 284 µL/min/mg

CC(C)C[C@@H]1NC(=O)[C@H](C(C)C)NC(=O)[C@H](Cc2ccccc2)NC(=O)CCN(C)C(=O)C[C@@H](C(=O)N2CCCCC2)NC(=O)[C@H](CC(C)C)N(C)C(=O)[C@H](CC(C)C)NC(=O)[C@H](C(C)C)N(C)C(=O)[C@H](CC(C)C)NC(=O)[C@H]([C@@H](C)O)NC(=O)CN(C)C1=O [DP-472] ([NMeβAla]FVL[Sar]TL[NMeV]L[NMeL]D-Piperidide; lactam N-11)
Papp at 18 hours, 50 µM [1, 3]: 24 ×10⁻⁶ cm/s
microsomal CLint at 1 uM [2, 4]: 52 µL/min/mg

CC(C)C[C@H]1C(=O)N(C)[C@@H](C)C(=O)N[C@H](C(=O)N(C)[C@@H](Cc2ccccc2)C(=O)N[C@@H](C)C(=O)N2CCCCC2)CC(=O)N(C)[C@@H](C)C(=O)N(C)[C@@H](Cc2ccccc2)C(=O)N(C)[C@@H](C)C(=O)N[C@@H]([C@@H](C)O)C(=O)N(C)[C@@H](C)C(=O)N[C@@H](C(C)C)C(=O)N1C [DP-357] ([NMeA][NMeF][NMeA]T[NMeA]V[NMeL][NMeA]D[NMeF]A-Piperidide; lactam N-9)
Papp at 18 hours, 50 µM [1, 3]: 14 ×10⁻⁶ cm/s
microsomal CLint at 1 uM [2, 4]: 56 µL/min/mg

CC[C@H](C)[C@H]1C(=O)N[C@@H]([C@@H](C)O)C(=O)N(C)[C@@H](C)C(=O)N(C)[C@@H](CC(C)C)C(=O)N[C@H](C(=O)N2CCCCC2)CC(=O)N(C)CC(=O)N(C)[C@@H](CC(C)C)C(=O)N[C@@H](CC(C)C)C(=O)N(C)[C@@H](Cc2ccccc2)C(=O)N[C@@H](COC(C)(C)C)C(=O)N(C)[C@@H](Cc2ccccc2)C(=O)N1C [DP-69] ([Sar][NMeL]L[NMeF]S(tBu)[NMeF][NMeI]T[NMeA][NMeL]D-Piperidide; lactam N-11)
Papp at 18 hours, 50 µM ([1]; pH 6.5): 21 ×10⁻⁶ cm/s
microsomal CLint at 1 uM ([2]; human, pH 7.4, CL NADPH(+)): 68 µL/min/mg

CC[C@H](C)[C@H]1C(=O)N[C@@H](C)CC(=O)N(C)[C@H](C)C(=O)N(C)[C@@H](Cc2ccccc2)C(=O)N(C)[C@@H](CC(C)C)C(=O)N[C@@H]([C@@H](C)O)C(=O)N(C)CC(=O)N[C@@H](COC(C)(C)C)C(=O)N(C)[C@@H](CC(C)C)C(=O)N1C [DP-789] (cyclo([NMeF][NMeL]T[Sar]S(tBu)[NMeL][NMeI][β3hA][dNMeA]))
Papp at 18 hours, 50 µM [1, 3]: 35 ×10⁻⁶ cm/s
microsomal CLint at 1 uM [2, 4]: 113 µL/min/mg

CC[C@H](C)[C@H]1C(=O)N[C@@H](Cc2ccccc2)C(=O)N[C@H](C(=O)N2CCCCC2)CC(=O)N(C)CCC(=O)N(C)[C@@H](C(C)C)C(=O)N[C@@H](Cc2ccccc2)C(=O)N[C@@H](CC(C)C)C(=O)N(C)[C@@H](C)C(=O)N[C@@H]([C@@H](C)O)C(=O)N[C@@H](CC(C)C)C(=O)N(C)[C@@H](CC(C)C)C(=O)NCC(=O)N1C [DP-221] ([NMeβAla][NMeV]FL[NMeA]TL[NMeL]G[NMeI]FD-Piperidide; lactam N-12)
Papp at 18 hours, 50 µM [1, 3]: 31 ×10⁻⁶ cm/s
microsomal CLint at 1 uM [2, 4]: 75 µL/min/mg
